17 compounds from the kinase profiling compilation of Christmann-Franck et al. (2016) can be followed below.

For assay [1], the target named is HIPK1 (human) (UniProt Q86Z02). Kind of assay: SelectScreen, TR FRET. For orientation: Time-resolved FRET reads energy transfer from a long-lived donor to a nearby acceptor.
The target in a further assay is HIPK2 (human) (UniProt Q9H2X6). Kind of assay: SelectScreen, TR FRET.
The next assay has as its target CAMK2A (human) (UniProt Q9UQM7). Kind of assay: KINOMEscan competition binding. As to conditions: compound 10.0 µM.
In the next assay the target is CAMK2D (human) (UniProt Q13557). Kind of assay: KINOMEscan competition binding. As to conditions: compound 10.0 µM.
The target of a further assay is CAMK2G (human) (UniProt Q13555). Kind of assay: KINOMEscan competition binding. As to conditions: compound 10.0 µM.
Another assay deals with DCLK1 (human) (UniProt O15075). Kind of assay: KINOMEscan competition binding. As to conditions: compound 10.0 µM.
The target in a further assay is MKNK2 (human) (UniProt Q9HBH9). Kind of assay: KINOMEscan competition binding. As to conditions: compound 10.0 µM.
The next assay addresses MYLK (human) (UniProt Q15746). Kind of assay: KINOMEscan competition binding. As to conditions: compound 10.0 µM.
Another assay has as its target PLK1 (human) (UniProt P53350). Kind of assay: KINOMEscan competition binding. As to conditions: compound 10.0 µM.
The target of the next assay is STK33 (human) (UniProt Q9BYT3). Kind of assay: KINOMEscan competition binding. As to conditions: compound 10.0 µM.
The target of another assay is DCLK2 (human) (UniProt Q8N568). Kind of assay: KINOMEscan competition binding. As to conditions: compound 10.0 µM.
The next assay has as its target PTK2B (human) (UniProt Q14289). Kind of assay: KINOMEscan competition binding. As to conditions: compound 10.0 µM.
A further assay addresses CAMKK1 (human) (UniProt Q8N5S9). Kind of assay: KINOMEscan competition binding. As to conditions: compound 10.0 µM.
Another assay has as its target CDK7 (human) (UniProt P50613). Kind of assay: KINOMEscan competition binding. As to conditions: compound 10.0 µM.
Another assay concerns the target CLK1 (human) (UniProt P49759). Kind of assay: KINOMEscan competition binding. As to conditions: compound 10.0 µM.
The target in another assay is CLK2 (human) (UniProt P49760). Kind of assay: KINOMEscan competition binding. As to conditions: compound 10.0 µM.
The target in the next assay is CLK4 (human) (UniProt Q9HAZ1). Kind of assay: KINOMEscan competition binding. As to conditions: compound 10.0 µM.
For another assay, the target named is CSNK2A1 (human) (UniProt P68400). Kind of assay: KINOMEscan competition binding. As to conditions: compound 10.0 µM.
For a further assay, the target named is DAPK2 (human) (UniProt Q9UIK4). Kind of assay: KINOMEscan competition binding. As to conditions: compound 10.0 µM.
The target of the next assay is DYRK1B (human) (UniProt Q9Y463). Kind of assay: KINOMEscan competition binding. As to conditions: compound 10.0 µM.
The target in assay [2] is HIPK1 (human) (UniProt Q86Z02). Kind of assay: KINOMEscan competition binding. As to conditions: compound 10.0 µM.
The next assay concerns the target MAPK15 (human) (UniProt Q8TD08). Kind of assay: KINOMEscan competition binding. As to conditions: compound 10.0 µM.
Another assay concerns the target MINK1 (human) (UniProt Q8N4C8). Kind of assay: KINOMEscan competition binding. As to conditions: compound 10.0 µM.
The subject of assay [3] is PIK3CA (human), P42336 [E545K]. Kind of assay: KINOMEscan competition binding. As to conditions: compound 10.0 µM.
Assay [4] addresses PIM1 (human) (UniProt P11309). Kind of assay: KINOMEscan competition binding. As to conditions: compound 10.0 µM.
Assay [5] has as its target PIM2 (human) (UniProt Q9P1W9). Kind of assay: KINOMEscan competition binding. As to conditions: compound 10.0 µM.
The next assay has as its target PIM3 (human) (UniProt Q86V86). Kind of assay: KINOMEscan competition binding. As to conditions: compound 10.0 µM.
The target of the next assay is RPS6KA4 KD2 (human) (UniProt O75676). Kind of assay: KINOMEscan competition binding. As to conditions: compound 10.0 µM.
The target in the next assay is STK17A (human) (UniProt Q9UEE5). Kind of assay: KINOMEscan competition binding. As to conditions: compound 10.0 µM.
Another assay concerns the target STK17B (human) (UniProt O94768). Kind of assay: KINOMEscan competition binding. As to conditions: compound 10.0 µM.
Another assay deals with TAOK1 (human) (UniProt Q7L7X3). Kind of assay: KINOMEscan competition binding. As to conditions: compound 10.0 µM.
In the next assay the target is TAOK3 (human) (UniProt Q9H2K8). Kind of assay: KINOMEscan competition binding. As to conditions: compound 10.0 µM.
The next assay deals with TGFBR2 (human) (UniProt P37173). Kind of assay: KINOMEscan competition binding. As to conditions: compound 10.0 µM.
The target of assay [6] is PIM1 (human) (UniProt P11309). Kind of assay: SelectScreen, TR FRET.
Assay [7] has as its target PIM2 (human) (UniProt Q9P1W9). Kind of assay: SelectScreen, TR FRET.
In another assay the target is CSNK2A2 (human) (UniProt P19784). Kind of assay: KINOMEscan competition binding. As to conditions: compound 10.0 µM.
Another assay concerns the target PIK3CG (human) (UniProt P48736). Kind of assay: KINOMEscan competition binding. As to conditions: compound 10.0 µM.
The next assay addresses CAMKK2 (human) (UniProt Q96RR4). Kind of assay: KINOMEscan competition binding. As to conditions: compound 10.0 µM.
The target of another assay is MAP2K3 (human) (UniProt P46734). Kind of assay: KINOMEscan competition binding. As to conditions: compound 10.0 µM.
For the next assay, the target named is MAP2K4 (human) (UniProt P45985). Kind of assay: KINOMEscan competition binding. As to conditions: compound 10.0 µM.

Sequence of PIK3CA (human), P42336 [E545K] (P42336 whole entry E545K, looked up): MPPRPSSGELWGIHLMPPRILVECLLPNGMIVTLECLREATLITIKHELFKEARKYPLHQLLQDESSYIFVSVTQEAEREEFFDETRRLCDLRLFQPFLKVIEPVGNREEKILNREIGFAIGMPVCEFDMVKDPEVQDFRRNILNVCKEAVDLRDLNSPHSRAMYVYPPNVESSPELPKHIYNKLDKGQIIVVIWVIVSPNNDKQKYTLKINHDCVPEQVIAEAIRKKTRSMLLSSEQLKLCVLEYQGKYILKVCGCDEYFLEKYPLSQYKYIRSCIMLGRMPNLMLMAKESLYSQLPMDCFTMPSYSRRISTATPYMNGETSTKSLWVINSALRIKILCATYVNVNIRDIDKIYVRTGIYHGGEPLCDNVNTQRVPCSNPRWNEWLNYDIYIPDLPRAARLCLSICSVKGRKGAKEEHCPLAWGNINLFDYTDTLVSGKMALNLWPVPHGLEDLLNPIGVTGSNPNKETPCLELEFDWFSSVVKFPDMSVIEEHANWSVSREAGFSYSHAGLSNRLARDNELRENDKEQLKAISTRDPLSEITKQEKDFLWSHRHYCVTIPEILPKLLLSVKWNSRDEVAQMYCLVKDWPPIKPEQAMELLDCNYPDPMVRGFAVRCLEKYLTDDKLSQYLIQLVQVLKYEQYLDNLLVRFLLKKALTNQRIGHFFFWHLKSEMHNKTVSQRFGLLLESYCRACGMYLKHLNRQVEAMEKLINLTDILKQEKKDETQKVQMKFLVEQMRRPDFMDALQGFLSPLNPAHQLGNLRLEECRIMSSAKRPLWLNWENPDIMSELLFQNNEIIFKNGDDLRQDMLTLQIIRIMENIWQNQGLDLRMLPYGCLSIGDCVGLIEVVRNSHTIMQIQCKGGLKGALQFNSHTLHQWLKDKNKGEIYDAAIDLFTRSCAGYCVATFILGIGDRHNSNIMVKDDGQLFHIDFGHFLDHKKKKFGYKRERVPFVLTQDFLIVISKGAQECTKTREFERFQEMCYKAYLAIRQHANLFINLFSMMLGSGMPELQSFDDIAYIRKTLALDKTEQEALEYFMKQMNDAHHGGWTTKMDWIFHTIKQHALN
Sequence of PIM1 (human) (P11309 whole entry, looked up): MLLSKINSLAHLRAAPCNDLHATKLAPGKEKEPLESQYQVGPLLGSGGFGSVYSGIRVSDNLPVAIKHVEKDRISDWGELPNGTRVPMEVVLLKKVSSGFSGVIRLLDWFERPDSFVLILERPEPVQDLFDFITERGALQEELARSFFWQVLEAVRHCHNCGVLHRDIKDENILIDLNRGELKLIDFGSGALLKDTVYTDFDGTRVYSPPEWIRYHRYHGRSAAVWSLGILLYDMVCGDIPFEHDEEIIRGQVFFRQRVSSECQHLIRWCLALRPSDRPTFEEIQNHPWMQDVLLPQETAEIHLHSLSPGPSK
Sequence of HIPK1 (human) (Q86Z02 whole entry, looked up): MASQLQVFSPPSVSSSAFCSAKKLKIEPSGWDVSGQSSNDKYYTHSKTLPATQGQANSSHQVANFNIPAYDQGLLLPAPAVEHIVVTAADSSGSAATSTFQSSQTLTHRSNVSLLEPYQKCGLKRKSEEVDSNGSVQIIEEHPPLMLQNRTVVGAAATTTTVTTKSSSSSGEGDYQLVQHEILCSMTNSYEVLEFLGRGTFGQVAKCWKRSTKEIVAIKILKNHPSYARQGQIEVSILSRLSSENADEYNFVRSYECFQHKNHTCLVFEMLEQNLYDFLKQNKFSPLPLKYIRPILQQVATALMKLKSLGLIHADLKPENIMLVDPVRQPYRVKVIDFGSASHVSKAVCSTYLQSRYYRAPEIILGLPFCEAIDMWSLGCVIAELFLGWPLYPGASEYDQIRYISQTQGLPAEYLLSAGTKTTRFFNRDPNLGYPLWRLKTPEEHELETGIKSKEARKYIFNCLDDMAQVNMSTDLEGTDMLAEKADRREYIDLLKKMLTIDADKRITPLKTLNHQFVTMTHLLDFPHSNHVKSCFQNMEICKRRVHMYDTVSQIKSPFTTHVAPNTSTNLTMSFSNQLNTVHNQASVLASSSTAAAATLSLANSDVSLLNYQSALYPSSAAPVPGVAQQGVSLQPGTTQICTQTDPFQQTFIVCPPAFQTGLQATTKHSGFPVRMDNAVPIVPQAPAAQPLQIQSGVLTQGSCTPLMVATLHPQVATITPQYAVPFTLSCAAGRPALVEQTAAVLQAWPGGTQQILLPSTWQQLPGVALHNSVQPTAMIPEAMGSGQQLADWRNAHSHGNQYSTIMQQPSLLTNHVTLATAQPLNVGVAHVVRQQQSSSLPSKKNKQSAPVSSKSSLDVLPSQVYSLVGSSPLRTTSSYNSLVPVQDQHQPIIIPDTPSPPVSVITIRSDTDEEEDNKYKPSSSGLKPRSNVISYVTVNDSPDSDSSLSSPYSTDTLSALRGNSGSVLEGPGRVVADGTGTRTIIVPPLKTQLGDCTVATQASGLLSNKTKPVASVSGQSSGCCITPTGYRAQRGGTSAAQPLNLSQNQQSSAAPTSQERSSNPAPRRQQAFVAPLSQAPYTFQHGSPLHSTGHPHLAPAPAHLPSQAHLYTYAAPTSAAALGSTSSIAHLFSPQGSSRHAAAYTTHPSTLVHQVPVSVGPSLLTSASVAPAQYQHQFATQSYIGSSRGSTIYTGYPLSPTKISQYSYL
Sequence of HIPK2 (human) (Q9H2X6 whole entry, looked up): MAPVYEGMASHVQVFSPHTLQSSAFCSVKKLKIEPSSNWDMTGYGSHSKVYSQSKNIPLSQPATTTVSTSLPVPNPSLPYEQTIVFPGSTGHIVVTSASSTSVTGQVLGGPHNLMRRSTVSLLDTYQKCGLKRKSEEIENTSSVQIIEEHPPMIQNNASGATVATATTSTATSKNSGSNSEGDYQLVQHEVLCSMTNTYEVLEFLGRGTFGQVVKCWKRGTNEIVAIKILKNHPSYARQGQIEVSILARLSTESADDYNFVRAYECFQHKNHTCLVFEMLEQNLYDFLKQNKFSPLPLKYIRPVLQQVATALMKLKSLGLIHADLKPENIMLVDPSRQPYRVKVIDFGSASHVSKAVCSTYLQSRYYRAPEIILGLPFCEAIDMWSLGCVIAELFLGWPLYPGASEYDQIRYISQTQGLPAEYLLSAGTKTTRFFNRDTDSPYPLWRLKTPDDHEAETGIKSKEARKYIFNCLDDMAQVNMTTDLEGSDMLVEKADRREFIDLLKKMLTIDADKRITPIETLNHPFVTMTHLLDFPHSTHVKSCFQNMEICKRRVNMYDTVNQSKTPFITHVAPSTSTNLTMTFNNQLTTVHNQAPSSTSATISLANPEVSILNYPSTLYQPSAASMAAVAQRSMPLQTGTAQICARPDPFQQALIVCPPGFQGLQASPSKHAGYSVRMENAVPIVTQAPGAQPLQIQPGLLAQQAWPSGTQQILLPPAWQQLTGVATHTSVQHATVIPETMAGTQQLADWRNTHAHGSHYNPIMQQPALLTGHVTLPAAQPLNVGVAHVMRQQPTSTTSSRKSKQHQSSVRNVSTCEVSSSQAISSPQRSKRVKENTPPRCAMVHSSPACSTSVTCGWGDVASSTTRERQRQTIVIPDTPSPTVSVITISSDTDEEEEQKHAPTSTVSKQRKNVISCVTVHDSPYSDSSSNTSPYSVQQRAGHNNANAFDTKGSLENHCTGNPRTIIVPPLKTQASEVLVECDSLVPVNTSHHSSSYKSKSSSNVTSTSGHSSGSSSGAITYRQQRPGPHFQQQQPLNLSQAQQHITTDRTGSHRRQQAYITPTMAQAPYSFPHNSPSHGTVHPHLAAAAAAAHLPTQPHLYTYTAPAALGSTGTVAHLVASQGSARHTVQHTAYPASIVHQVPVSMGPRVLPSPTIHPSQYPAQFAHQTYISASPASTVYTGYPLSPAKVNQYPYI
Sequence of PIM2 (human) (Q9P1W9 whole entry, looked up): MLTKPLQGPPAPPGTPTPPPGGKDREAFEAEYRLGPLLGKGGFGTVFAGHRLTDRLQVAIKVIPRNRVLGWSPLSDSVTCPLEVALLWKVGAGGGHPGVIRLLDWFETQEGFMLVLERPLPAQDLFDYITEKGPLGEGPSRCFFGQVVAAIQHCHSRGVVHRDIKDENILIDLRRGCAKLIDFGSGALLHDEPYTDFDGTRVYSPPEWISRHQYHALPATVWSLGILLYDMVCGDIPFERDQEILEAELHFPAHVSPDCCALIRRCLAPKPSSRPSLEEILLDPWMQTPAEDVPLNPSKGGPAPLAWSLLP
Sequence of CAMK2D (human) (Q13557 whole entry, looked up): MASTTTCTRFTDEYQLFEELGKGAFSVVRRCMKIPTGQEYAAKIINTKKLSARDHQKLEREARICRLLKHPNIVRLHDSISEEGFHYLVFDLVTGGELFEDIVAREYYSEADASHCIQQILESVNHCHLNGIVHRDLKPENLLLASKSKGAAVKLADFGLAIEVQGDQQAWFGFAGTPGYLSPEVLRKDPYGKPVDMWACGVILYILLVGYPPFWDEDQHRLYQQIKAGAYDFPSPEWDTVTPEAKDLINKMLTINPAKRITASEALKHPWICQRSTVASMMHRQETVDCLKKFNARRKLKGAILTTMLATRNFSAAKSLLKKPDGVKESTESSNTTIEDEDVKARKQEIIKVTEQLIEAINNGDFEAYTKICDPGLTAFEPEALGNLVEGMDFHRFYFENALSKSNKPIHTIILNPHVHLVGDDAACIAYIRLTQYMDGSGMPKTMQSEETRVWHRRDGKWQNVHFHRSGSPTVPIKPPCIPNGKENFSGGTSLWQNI
Sequence of STK17B (human) (O94768 whole entry, looked up): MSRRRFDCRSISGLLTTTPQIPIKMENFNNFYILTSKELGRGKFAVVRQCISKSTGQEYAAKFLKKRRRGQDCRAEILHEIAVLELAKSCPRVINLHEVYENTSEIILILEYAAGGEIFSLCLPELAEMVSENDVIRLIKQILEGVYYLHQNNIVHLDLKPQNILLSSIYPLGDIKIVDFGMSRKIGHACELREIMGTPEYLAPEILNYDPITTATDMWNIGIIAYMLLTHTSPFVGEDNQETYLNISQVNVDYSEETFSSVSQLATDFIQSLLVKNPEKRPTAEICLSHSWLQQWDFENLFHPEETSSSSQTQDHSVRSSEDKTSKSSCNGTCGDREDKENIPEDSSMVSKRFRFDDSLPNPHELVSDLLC

On to `N=C1NC(=O)/C(=C/c2c[nH]c(=O)c(-c3cccc(N)c3)c2)S1`, for which the IC50 (usually the concentration that inhibits the measured activity by half) on HIPK1 (human) [1] amounted to 317 nM; against HIPK2 (human) it was 163 nM.

As for `CCN1C(=O)CC(c2ccccc2)N(C2CCCC2)c2nc(Nc3ccc(C(=O)NC4CCN(C)CC4)cc3OC)ncc21` (configuration not stated), the kinase still bound, per cent of control on CAMK2A (human) was determined as 20%; on CAMK2D (human) it was 30%; at CAMK2G (human) it was 26%; on DCLK1 (human), 23%; on MKNK2 (human), 33%; at MYLK (human), 26%. The kinase still bound, per cent of control is 0.55% at PLK1 (human) and 20% on STK33 (human).

`O=C1NC(=O)/C(=C/c2c[nH]c(=O)c(-c3ccc(N4CCN(Cc5ccccc5)CC4)nc3)c2)S1`: the IC50 turned out to be 392 nM on HIPK1 (human) [1] and 173 nM at HIPK2 (human).

Take `O=C1NC(=O)/C(=C/c2c[nH]c(=O)c(-c3cncc4ccccc34)c2)S1`: the IC50 on HIPK1 (human) [1] and against HIPK2 (human) was > 10000 nM each time.

Take `Nc1cccc(-c2cc(/C=C3\NC(=O)NC3=O)c[nH]c2=O)c1`: the IC50 on HIPK1 (human) [1] and at HIPK2 (human) was > 10000 nM throughout.

With `CCN1C(=O)CC(C(C)C)N(C2CCCC2)c2nc(Nc3ccc(C(=O)NC4CCN(C)CC4)cc3OC)ncc21` (configuration not stated), the kinase still bound, per cent of control stood at 9.3% on CAMK2A (human); 23% at CAMK2D (human); 16% at CAMK2G (human); 0.9% on DCLK1 (human); 1.6% at DCLK2 (human); 34% at PTK2B (human). The kinase still bound, per cent of control at STK33 (human) was found to be 31%.

`O=C1NC(=O)/C(=C/c2c[nH]c(=O)c(-c3ccc(N4CCNCC4)nc3)c2)N1`: the IC50 on HIPK1 (human) [1] and at HIPK2 (human) was > 10000 nM throughout.

For `O=C1NC(=O)/C(=C/c2c[nH]c(=O)c(-c3ccc(N4CCC(N5CCCC5)CC4)nc3)c2)S1`, the IC50 against HIPK1 (human) [1] was found to be 6530 nM; against HIPK2 (human), 4900 nM.

As to `CC(=O)Nc1ccc(-c2ccc(/C=C3\SC(=N)NC3=O)o2)c(O)c1`, the kinase still bound, per cent of control on CAMKK1 (human) was 30%; at CDK7 (human), 3.9%; on CLK1 (human), 16%; at CLK2 (human), 4.8%; at CLK4 (human) it was 13%; at CSNK2A1 (human), 32%. Moreover, the kinase still bound, per cent of control turned out to be 24% on DAPK2 (human); 23% at DYRK1B (human); 2.6% on HIPK1 (human) [2]; 0.4% on MAPK15 (human); 33% at MINK1 (human); 25% in [3]. Moreover, the kinase still bound, per cent of control on PIM1 (human) [4] stood at 1.6%; at PIM2 (human) [5], 1.6%; on PIM3 (human), 2.2%; on RPS6KA4 KD2 (human) it was 29%; on STK17A (human), 0.7%; on STK17B (human), 3%. Moreover, the kinase still bound, per cent of control on TAOK1 (human) came out at 4%; on TAOK3 (human) it was 8.6%; at TGFBR2 (human) it was 13%. The IC50 on PIM1 (human) [6] worked out at 959 nM; on PIM2 (human) [7], 298 nM.

For the compound `Nc1ccc(-c2cc(/C=C3\SC(=O)NC3=O)c[nH]c2=O)cn1`, the values for the IC50 on HIPK1 (human) [1] and on HIPK2 (human) were 500 nM and 351 nM, respectively.

Turning to `O=C1NC(=O)/C(=C/c2c[nH]c(=O)c(-c3ccc(N4CCNCC4)cc3)c2)S1`, the IC50 came out at 52 nM against HIPK1 (human) [1] and 45 nM on HIPK2 (human).

In the case of `CS(=O)(=O)Nc1ccc(-c2ccc(/C=C3\SC(=N)NC3=O)o2)c(O)c1`, the kinase still bound, per cent of control at CDK7 (human) is 0.9%; on CSNK2A2 (human) it was 22%; on HIPK1 (human) [2], 22%; on MAPK15 (human), 0.55%; at MINK1 (human) it was 30%; in assay [3], 32%. Also, the kinase still bound, per cent of control at PIK3CG (human) is 1.6%; at PIM1 (human) [4] it was 3.3%; on PIM2 (human) [5], 0.45%; at PIM3 (human), 4.8%; on RPS6KA4 KD2 (human) it was 30%; on STK17A (human) it was 25%. Further, the kinase still bound, per cent of control at STK17B (human) was 7.7%; on TGFBR2 (human), 32%. The IC50 against PIM1 (human) [6] worked out at 768 nM; against PIM2 (human) [7], 1920 nM.

Consider `CS(=O)(=O)Nc1ccc(-c2ccc(C=C3C(=O)NC(=O)NC3=O)o2)cc1`, for which the kinase still bound, per cent of control is 34% at CAMKK2 (human) and 20% in assay [3].

Turning to `CS(=O)(=O)Nc1ccc(-c2cc(/C=C3\SC(=O)NC3=O)c[nH]c2=O)cc1`, the IC50 amounted to 527 nM on HIPK1 (human) [1], 258 nM on HIPK2 (human), 151 nM at PIM1 (human) [6] and 214 nM against PIM2 (human) [7].

As to `O=C1NC(=O)/C(=C/c2c[nH]c(=O)c(-c3cnc4ccccc4c3)c2)S1`, the IC50 came to 228 nM against HIPK1 (human) [1] and 178 nM against HIPK2 (human).

Consider `Nc1cccc(-c2cc(/C=C3\SC(=S)NC3=O)c[nH]c2=O)c1`, for which the IC50 amounted to 100 nM on HIPK1 (human) [1] and 93 nM at HIPK2 (human).

Turning to `O=C1NC(=O)C(=Cc2ccc(-c3ccc(Cl)cc3)o2)C(=O)N1`, the kinase still bound, per cent of control on MAP2K3 (human) is 15%; at MAP2K4 (human) it was 14%.
